From patent US12202858B2, “Solid-phase carrier including IgG-binding peptide, and IgG separation method” (KAGOSHIMA UNIVERSITY, priority 2018, dated 2025) come the findings set out here.

Bridges are numbered along the chain shown (N, C = ends). Primed or numbered codes have the meaning given here. Where no end group is shown, it is not given here. [ ]: non-standard residue; d: D form. PEG4′ = not defined here

The test system of data set [1] is human serum-derived y-globulin. Description: Evaluation of alkali resistance: DBC after washing with 0.1 M sodium hydroxide solution. It is filed as physicochemical. To be noted: up to ten cycles of 0.1 M sodium hydroxide treatment. The method, then: The DBC measurement was performed using a liquid chromatography instrument AKTAexplore (GE Healthcare). After equilibrating the prepared column with an adsorption solution, 1 mg/mL human serum-derived y-globulin (Sigma-Aldrich) dissolved in the adsorption solution was fed at a flow rate of 1 mL/min. The DBC was determined from the amount of the sample fed until the value of an absorbance at 280 nm excluding the non-adsorbed component reached 10% of the absorbance of the entire sample.
To a 1-mg peptide-immobilized 1-mL column prepared by the same method as in Example 2, 10 mL of 0.1 M sodium hydroxide solution was fed. The column was then washed with 10 mL of an adsorption solution. After washing with the sodium hydroxide solution/adsorption solution for 1, 2, 5, and 10 times, measurement of DBC was performed at a flow rate of 1 mL/min in the same manner as in Example 2. The variation rate of DBC was determined based on the DBC before the sodium hydroxide treatment as 100%. […]

A further data set concerns the target human IgG. The experiment in a line: Affinity analysis by surface plasmon resonance (BIAcore T200), human IgG immobilized on sensor chip. It is filed as binding. To be noted: BIAcore T200, HBS-EP buffer pH 7.4, immobilized human IgG. The procedure:
The affinity analysis was performed by the following method. First, a solution containing equal amounts of 0.4 M EDC (1-ethyl-3-(3-dimethylaminopropyl)-carbodiimide) and 0.1 M sulfo-NHS (sulfo-N-hydroxysuccinimide)) was injected at a flow rate of […] onto a CMS sensor chip set in BIAcore T200 (GE healthcare), thereby activating the sensor chip. Then, under the condition of pH 5.5 (10 mM Na acetate), human IgG was immobilized onto the sensor chip. For the measurement, HBS-EP buffer (10 mM HEPES, 150 mM NaCl, 0.005% Tween 20, 3 mM EDTA, pH 7.4) was used, and the binding reaction was monitored by injecting 15.6, 31.2, 62.5, 125, 250, 500, and 1000 nM of the purified cross-linked cyclic peptide described above for 180 seconds at a flow rate of […]. For measuring the dissociation reaction, only the buffer was injected for 600 seconds. The analysis of interaction parameters was performed using BIA evaluation T100 software.
In Comparative Example 1, the cross-linked cyclic peptide described in Patent Document 2 was synthesized, and measurement of affinity was performed in the same manner as in Example 1. Synthesis of the peptide and cross-linking reaction were carried out under the following conditions.
On the technique in general: SPR reads the build-up and loss of mass on a sensor chip optically.

As a reminder, the Kd is the free concentration of one partner at which half of the binding sites on the other are occupied at equilibrium, for simple one-to-one binding. Low readings indicate higher affinity, high ones lower affinity. Usually koff stands for the first-order rate constant of dissociation. The low end stands for a long-lived complex, the high end for a short-lived complex. What is called kon is a measure of how fast the partners come together. Regarding “N-terminal PEG4-modified, C-terminal amidated cross-linked cyclic peptide GPDCAYHRGELVWCTFH (SEQ ID NO: 31), two cysteine residues linked as in the formula [Example 1]”, the “decrease in DBC by sodium hydroxide treatment (alkali resistance)” value in data set [1] is on record as “almost no decrease in DBC”. On human IgG, this substance yielded a dissociation constant Kd of 0.34 µM, an off-rate constant (koff) of 0.22 s⁻¹ and a kon of 650000 M⁻¹ s⁻¹.

Regarding “PEG4-modified, amidated GPDCAYHRGELVWCTFH peptide of Patent Document 2, cysteine sulfide groups linked via 1,3-dichloro-2-propanone-derived linker ([PEG4′]GPDCAYHRGELVWCTFH-NH2; bridge 5-15; not fully specified (bridges)) [Comparative Example 1, reference compound]”, on human IgG, the Kd was 4.9 µM, the koff amounted to 0.005 s⁻¹ and the kon came out at 1000 M⁻¹ s⁻¹.
